Consider 9 compounds from US20230341377A1, “DISCONNECTION AGENTS” (DC Europa Limited, priority 2020, published 2023).

One experiment relates to Hs578T cells. Kind of experiment: SMS assay in Hs578T cells. It counts as cell-based, human. The following applies: versus vehicle and PMA (5 nM), FIG. 2A, 2B, 2D, 2E. From the text:
(§1) The SMS assay was developed to assess the transfer of cell dye (for example the acetoxymethyl [AM]-based Calcein AM), between cancer cells. The SMS assay can be applied to any cell lines forming tumour networks such as tumour microtubes (TM) or tunneling nanotubes (TNT), which enable the transfer of molecules across cells. The SMS assay can be used to assess networking capabilities of any cancer cell lines including HepG2 hepatocellular carcinoma cells, Hs578T cell line for human breast cancer, and U373 cell line for human glioblastoma.
(§2) The SMS assay is illustrated in FIG. 1. For the SMS assay, two sets of cells are stained with the cell dye of choice and a customary cell tracker dye (for example cell tracker blue) using established staining techniques (steps 1 and 2). Each set of cells are then co-incubated with the compound of interest to assess its capabilities to modulate the cells small molecule sharing characteristics (step 3). Then the two sets of cells are combined on a plate, for example at a ratio of 1:1, and cultured in the presence of the compound of interest (Step 4).
(§3) Finally, live cells are evaluated for viability and analyzed by flow cytometry for the uptake of cell dye in the […] cells (Step 5). The comparison of cell tracker uptake against positive and negative control enables the assessment of the compound's ability to modulate the tumour networks including those formed by TM and TNTs
(§4) The SMS assay has been applied to assess the modulation of network sharing capabilities of Protein Kinase C Modulators (PKCm) at various concentrations in the Hs578 cell line for human breast cancer, U373 cell line of human glioblastoma, and HepG2 hepatocellular carcinoma cells. PBS vehicle was used as negative control and the PKCm PHORBOL 12-MYRISTATE 13-ACETATE (PMA) at a concentration of 5 nM was used as the positive control.
(§5) FIG. 2A and FIG. 2B show the percentage of cell tracker cells that were accepting the cell dye transfer from separately stained donor cells according to the SMS assay of Example. The percentage of acceptor cells detected is shown in comparison to vehicle (upper horizontal line) and PMA at 5-10 nM concentration (lower horizontal line). Active PKCm in the SMS assay (FIG. 2A) show a decrease in acceptor cells relative to vehicle at certain concentration. […] The upper limit of the tested concentrations was determined as the maximal non-cytotoxic dose.

The subject of experiment [1] is Hs578 cell line for human breast cancer, U373 cell line of human glioblastoma, and HepG2 hepatocellular carcinoma cells. Put plainly: SMS assay (small molecule sharing), cell dye-sharing between cancer cells, cell lines pooled. Particulars: for effect on cell dye-sharing in the SMS assay: concentration range of 0.1 to 30 μM; for inhibition of cell dye-sharing in the SMS assay: various doses that are not cytotoxic, in one or more cell lines. It is filed as cell-based.
Description: as §1, §2, §3, §4, §5

The next experiment relates to PKCβI/PKCβII. Also noted: key: +—activation; ++—strong activation. The following applies: cited from earlier work; for activation of PKCβI/PKCβII: cPKCs, gene PRKCB.
For a further experiment, the system named is HepG2 cells. Kind of experiment: SMS assay in HepG2 cells. It is filed as cell-based, human. The following applies: versus vehicle and PMA (10 nM), FIG. 2C.
Description: as §1
(§6) The SMS assay is illustrated in FIG. 1. For the SMS assay, two sets of cells are stained with the cell dye of choice and a customary cell tracker dye (for example cell tracker blue) using established staining techniques (steps 1 and 2). […]
(§7) Finally, live cells are evaluated for viability and analyzed by flow cytometry for the uptake of cell dye in the flow tracker-stained cells (Step 5). […]
(§8) FIG. 2A and FIG. 2B show the percentage of cell tracker cells that were accepting the cell dye transfer from separately stained donor cells according to the SMS assay of Example. The percentage of acceptor cells detected is shown in comparison to vehicle (upper horizontal line) and PMA at 5-10 nM concentration (lower horizontal line). […] The upper limit of the tested concentrations was determined as the maximal non-cytotoxic dose.

A further experiment addresses PKCα (Homo sapiens, UniProt P17252). Also noted: key: +—activation; ++—strong activation. Particulars: cPKCs, gene PRKCA; cited from earlier work.
Another experiment has as its target T1, PKCε (Homo sapiens, UniProt Q02156).
T1 sequence (Q02156 1-737): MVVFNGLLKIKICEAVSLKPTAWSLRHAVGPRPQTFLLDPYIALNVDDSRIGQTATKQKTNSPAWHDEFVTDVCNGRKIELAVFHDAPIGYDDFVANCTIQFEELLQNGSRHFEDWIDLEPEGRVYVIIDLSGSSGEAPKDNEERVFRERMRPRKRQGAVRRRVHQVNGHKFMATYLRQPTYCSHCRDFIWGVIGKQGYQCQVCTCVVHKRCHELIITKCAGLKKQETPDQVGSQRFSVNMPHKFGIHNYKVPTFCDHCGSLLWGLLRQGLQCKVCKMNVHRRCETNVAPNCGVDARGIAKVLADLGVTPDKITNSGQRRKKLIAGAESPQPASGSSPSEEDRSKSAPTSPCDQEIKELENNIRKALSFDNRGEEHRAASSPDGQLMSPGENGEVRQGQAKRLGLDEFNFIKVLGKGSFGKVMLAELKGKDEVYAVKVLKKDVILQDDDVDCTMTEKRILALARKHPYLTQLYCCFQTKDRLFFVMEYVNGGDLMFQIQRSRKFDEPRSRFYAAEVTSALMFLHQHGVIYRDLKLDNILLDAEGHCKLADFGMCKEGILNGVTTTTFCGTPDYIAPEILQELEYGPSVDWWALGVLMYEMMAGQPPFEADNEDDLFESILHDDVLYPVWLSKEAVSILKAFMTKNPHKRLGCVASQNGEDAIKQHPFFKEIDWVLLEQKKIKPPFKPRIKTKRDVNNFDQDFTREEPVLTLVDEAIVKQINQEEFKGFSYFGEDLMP
Set-up: key: +—activation; ++—strong activation. The following applies: nPKCs, gene PRKCE; cited from earlier work.

The next experiment deals with PKCδ (Homo sapiens, UniProt Q05655). Also noted: key: +—activation; ++—strong activation. Particulars: nPKCs, gene PRKCD; cited from earlier work.
Chain of PKCδ (Q05655 whole entry): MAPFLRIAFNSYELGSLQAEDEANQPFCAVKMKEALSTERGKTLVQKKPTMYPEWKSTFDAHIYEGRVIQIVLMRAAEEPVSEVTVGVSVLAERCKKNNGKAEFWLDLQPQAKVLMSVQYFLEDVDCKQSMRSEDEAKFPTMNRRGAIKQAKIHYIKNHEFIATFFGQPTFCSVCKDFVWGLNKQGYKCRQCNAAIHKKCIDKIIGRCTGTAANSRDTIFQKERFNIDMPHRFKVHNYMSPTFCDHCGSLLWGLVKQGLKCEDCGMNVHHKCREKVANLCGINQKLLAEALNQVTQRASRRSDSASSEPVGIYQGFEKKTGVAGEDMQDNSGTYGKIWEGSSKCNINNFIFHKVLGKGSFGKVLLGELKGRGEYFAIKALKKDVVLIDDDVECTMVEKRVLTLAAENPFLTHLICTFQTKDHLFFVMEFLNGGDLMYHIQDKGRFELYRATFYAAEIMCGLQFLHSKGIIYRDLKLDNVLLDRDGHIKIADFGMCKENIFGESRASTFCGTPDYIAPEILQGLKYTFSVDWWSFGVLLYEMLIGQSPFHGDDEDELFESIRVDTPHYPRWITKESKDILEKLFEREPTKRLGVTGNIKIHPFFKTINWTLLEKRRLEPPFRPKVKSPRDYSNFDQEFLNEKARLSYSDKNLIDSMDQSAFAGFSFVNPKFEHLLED
The target of another experiment is PKCγ (Homo sapiens, UniProt P05129). Set-up: key: +—activation; ++—strong activation. The following applies: cPKCs, gene PRKCG; cited from earlier work.
In another experiment the target is PKCη (Homo sapiens, UniProt P24723). Set-up: key: +—activation; ++—strong activation. Particulars: nPKCs, gene PRKCH; cited from earlier work.
Chain of PKCη (P24723 whole entry): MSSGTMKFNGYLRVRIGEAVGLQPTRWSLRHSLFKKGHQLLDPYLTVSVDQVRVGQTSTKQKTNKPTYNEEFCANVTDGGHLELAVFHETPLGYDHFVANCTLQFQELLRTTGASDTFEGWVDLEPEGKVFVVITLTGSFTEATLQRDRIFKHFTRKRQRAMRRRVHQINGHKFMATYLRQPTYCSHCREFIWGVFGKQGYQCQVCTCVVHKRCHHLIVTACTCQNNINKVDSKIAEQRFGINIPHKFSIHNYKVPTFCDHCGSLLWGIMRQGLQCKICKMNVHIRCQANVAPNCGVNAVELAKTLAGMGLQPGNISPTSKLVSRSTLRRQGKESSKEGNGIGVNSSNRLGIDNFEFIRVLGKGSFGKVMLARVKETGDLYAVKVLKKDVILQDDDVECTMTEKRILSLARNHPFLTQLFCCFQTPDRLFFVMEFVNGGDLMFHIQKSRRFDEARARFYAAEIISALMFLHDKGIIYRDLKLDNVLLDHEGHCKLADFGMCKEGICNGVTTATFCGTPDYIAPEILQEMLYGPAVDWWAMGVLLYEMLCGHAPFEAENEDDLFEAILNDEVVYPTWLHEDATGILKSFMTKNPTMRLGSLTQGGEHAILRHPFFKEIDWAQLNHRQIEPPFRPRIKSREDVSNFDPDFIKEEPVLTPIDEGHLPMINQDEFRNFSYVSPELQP
The target in the next experiment is PKCθ (Homo sapiens, UniProt Q04759). Set-up: key: +—activation; ++—strong activation. The following applies: nPKCs, gene PRKCQ; cited from earlier work.
Chain of PKCθ (Q04759 whole entry): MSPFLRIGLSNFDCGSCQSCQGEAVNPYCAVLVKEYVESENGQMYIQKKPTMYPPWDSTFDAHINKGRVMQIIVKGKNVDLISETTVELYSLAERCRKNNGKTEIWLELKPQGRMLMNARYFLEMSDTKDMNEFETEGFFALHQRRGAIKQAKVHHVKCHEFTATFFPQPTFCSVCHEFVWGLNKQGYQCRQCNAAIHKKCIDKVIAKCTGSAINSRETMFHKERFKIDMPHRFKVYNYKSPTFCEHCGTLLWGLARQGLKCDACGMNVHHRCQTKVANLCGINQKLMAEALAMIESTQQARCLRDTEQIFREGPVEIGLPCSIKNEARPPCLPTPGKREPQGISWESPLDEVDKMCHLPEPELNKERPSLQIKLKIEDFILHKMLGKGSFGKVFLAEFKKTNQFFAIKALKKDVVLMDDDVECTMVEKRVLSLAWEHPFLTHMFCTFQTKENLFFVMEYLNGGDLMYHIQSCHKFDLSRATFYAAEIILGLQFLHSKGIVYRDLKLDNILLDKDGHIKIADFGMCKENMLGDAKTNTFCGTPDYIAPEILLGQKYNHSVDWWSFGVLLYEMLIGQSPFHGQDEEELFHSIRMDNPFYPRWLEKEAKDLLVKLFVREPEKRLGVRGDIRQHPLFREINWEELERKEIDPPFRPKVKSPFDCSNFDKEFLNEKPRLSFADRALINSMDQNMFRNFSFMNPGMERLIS
The next experiment concerns U373 cells. Put plainly: SMS assay in U373 cells. It counts as cell-based, human. The following applies: versus vehicle and PMA (10 nM), FIG. 2C.
Description: as §1, §6, §7, §8

`CCCCCCCCCCNc1cc(CO)c2cc[nH]c2c1` [6-(N-Decylamino)-4-Hydroxymethylindole]: the “cell dye-sharing in the SMS assay (percentage of acceptor cells)” value with Hs578T cells is “not interfering with cell dye-sharing”. Also, in experiment [1], the “effect on cell dye-sharing in the SMS assay” value (“effect on cell dye-sharing” below) is given as “did not have any effect”.
For `CCC/C=C/C=C/C(=O)O[C@H]1/C(=C/C(=O)OC)C[C@H]2C[C@H]([C@@H](C)O)OC(=O)C[C@H](O)C[C@@H]3C[C@H](OC(C)=O)C(C)(C)[C@](O)(C[C@@H]4C/C(=C/C(=O)OC)C[C@H](/C=C/C(C)(C)[C@]1(O)O2)O4)O3` [Bryostatin 1], the “activation of PKCβI” value in the experiment with PKCβI/PKCβII (βI only, activation and translocation in transfected CHO cells (Wender 2011)) was “+ (βI)”. Moreover, the “inhibition of cell dye-sharing in the SMS assay” value (from here on “inhibition”) in [1] is given as “marked inhibition of cell dye-sharing”. In the experiment on HepG2 cells, the “cell dye-sharing in the SMS assay (percentage of acceptor cells)” value is “inhibition of cell dye-sharing”. At PKCα, the “activation of PKCα” value is given as “+”. For the same compound, the “activation of PKCε” value at PKCε is reported as “+”.
For `CCCCCC1CC1CC1CC1CCCCCCCC(=O)O` (centres unmarked) [FR236924], the “cell dye-sharing in the SMS assay (percentage of acceptor cells)” value in the experiment with Hs578T cells was “not interfering with cell dye-sharing”. In experiment [1], the “effect on cell dye-sharing” value is recorded as “did not have any effect”.
In the case of `CC(C)[C@H]1C(=O)N[C@H](CO)Cc2c[nH]c3cccc(c23)N1C` [Indolactam V], the “activation of PKCβI/PKCβII” value in the experiment on PKCβI/PKCβII was “++”. In the experiment with Hs578T cells, the “cell dye-sharing in the SMS assay (percentage of acceptor cells)” value is recorded as “inhibition of cell dye-sharing”. Besides, the “activation of PKCδ” value on PKCδ was “++”. Further, in experiment [1], the “inhibition” value is reported as “marked inhibition of cell dye-sharing”. Moreover, the “activation of PKCγ” value on PKCγ is “+”. In addition, on PKCη, the “activation of PKCη” value is reported as “+”. Besides, the “activation of PKCα” value on PKCα is reported as “+”. Also, the “activation of PKCε” value on PKCε is on record as “+”.
With `C/C=C(/C)C(=O)O[C@H]1C(C)=C[C@]23C(=O)[C@@H](C=C(CO)[C@@H](O)[C@]12O)[C@H]1[C@@H](C[C@H]3C)C1(C)C` [Ingenol-3-angelate], the “activation of PKCβI/PKCβII” value with PKCβI/PKCβII was “+”. Further, on PKCδ, the “activation of PKCδ” value is reported as “+”. The “effect on cell dye-sharing” value in [1] is recorded as “did not have any effect”. Further, the “disconnection of tumour cell types in the assay for disconnection” value in experiment [1] (several different tumour cell types) is given as “does not disconnect”. The “activation of PKCγ” value at PKCγ is reported as “+”. The “activation of PKCα” value at PKCα is reported as “+”. In addition, the “activation of PKCε” value at PKCε is listed as “+”.
Take `CCCCCCCCCCCCCC(=O)O[C@@H]1[C@@H](C)[C@@]2(O)[C@@H](C=C(CO)C[C@]3(O)C(=O)C(C)=C[C@@H]23)[C@@H]2C(C)(C)[C@]12OC(C)=O` [PMA, 12-O-tetradecanoyl-phorbol-13-acetate]: the “activation of PKCβI/PKCβII” value in the experiment with PKCβI/PKCβII is listed as “+”. Further, the “cell dye-sharing in the SMS assay (percentage of acceptor cells)” value in the experiment with Hs578T cells is recorded as “inhibition of cell dye-sharing”. The “activation of PKCδ” value on PKCδ is “+”. The “inhibition” value in experiment [1] was “marked inhibition of cell dye-sharing”. In addition, at PKCγ, the “activation of PKCγ” value is reported as “+”. On PKCη, the “activation of PKCη” value was “+”. Also, the “activation of PKCθ” value at PKCθ is “+”. Besides, the “activation of PKCα” value at PKCα was “+”. The “activation of PKCε” value on PKCε is reported as “+”.
Take `O=S(=O)(NCCCCCCc1ccccc1)c1cccc2c(Cl)cccc12` [SC-9]: the “cell dye-sharing in the SMS assay (percentage of acceptor cells)” value in the experiment on Hs578T cells is given as “not interfering with cell dye-sharing”. For the same compound, the “effect on cell dye-sharing” value in [1] is given as “did not have any effect”.
Consider `CCC/C=C/C=C/C(=O)O[C@H]1/C(=C/C(=O)OC)C[C@H]2C[C@H]([C@@H](C)O)OC(=O)C[C@H](O)C[C@@H]3C[C@H](OC(C)=O)C(C)(C)[C@](O)(C[C@@H]4C/C(=C/C(=O)OC)C[C@H](/C=C/C(C)(C)[C@]1(O)O2)O4)O3` [bryostatin], for which the “cell dye-sharing in the SMS assay (percentage of acceptor cells)” value in the experiment with Hs578T cells is given as “inhibition of cell dye-sharing”.
Consider Bryostatin 2, for which the “inhibition” value in experiment [1] is listed as “marked inhibition of cell dye-sharing”. Moreover, the “cell dye-sharing in the SMS assay (percentage of acceptor cells)” value in the experiment on U373 cells is “inhibition of cell dye-sharing”.
